Measured values from US9676751B2, “2-amino-3-ester-pyridl orexin receptor antagonists” (MERCK SHARP & DOHME CORP., priority 2013, dated 2017).
pIC50: −log10 of the molar value.

How the values were obtained:
human orexin-2 receptor = target: T1, human orexin-2 receptor (Homo sapiens, UniProt O43614); assay: FLIPR Ca2+ Flux Assay, CHO cells expressing the human orexin-2 receptor; type: cell-based; settings: agonist 70 pM Ala-6,12 orexin-A, read-out: hOX2R FLIPR IC50
T1 construct: expressed in transfected cells; host or cells: CHO cells
T1 sequence (O43614 1-444): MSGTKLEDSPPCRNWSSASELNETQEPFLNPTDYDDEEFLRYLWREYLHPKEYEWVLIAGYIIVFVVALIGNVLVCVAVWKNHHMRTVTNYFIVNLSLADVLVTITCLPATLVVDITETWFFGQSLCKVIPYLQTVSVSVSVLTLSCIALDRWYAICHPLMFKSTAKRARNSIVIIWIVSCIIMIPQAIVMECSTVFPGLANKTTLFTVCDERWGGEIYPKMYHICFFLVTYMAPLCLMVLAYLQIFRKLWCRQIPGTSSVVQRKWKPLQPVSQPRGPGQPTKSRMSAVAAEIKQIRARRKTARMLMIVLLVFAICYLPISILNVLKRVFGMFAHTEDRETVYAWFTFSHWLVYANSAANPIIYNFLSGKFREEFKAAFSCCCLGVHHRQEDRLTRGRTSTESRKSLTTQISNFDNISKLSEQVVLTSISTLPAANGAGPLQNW
Experimental: The utility of the compounds in accordance with the present invention as orexin receptor OX1R and/or OX2R antagonists may be readily determined without undue experimentation by methodology well known in the art, including the “FLIPR Ca^2+ Flux Assay” (Okumura et al., Biochem. Biophys. Res. Comm. 280:976-981, 2001). In a typical experiment the OX1 and OX2 receptor antagonistic activity of the compounds of the present invention was determined in accordance with the following experimental method. For intracellular calcium measurements, Chinese hamster ovary (CHO) cells expressing the rat orexin-1 receptor or the human orexin-2 receptor, are grown in Iscove's modified DMEM containing 2 mM L-glutamine, […], 1% hypoxanthine-thymidine supplement, 100 U/ml penicillin, 100 μg/ml streptomycin and 10% heat-inactivated fetal calf serum (FCS). The cells are seeded at 20,000 cells/well into Becton-Dickinson black 384-well clear bottom sterile plates coated with poly-D-lysine. All reagents were from GIBCO-Invitrogen Corp. The seeded plates are incubated overnight at 37° C. and 5% CO2. Ala-6,12 human orexin-A as the agonist is prepared as a 1 mM stock solution in 1% bovine serum albumin (BSA) and diluted in assay buffer (HBSS containing 20 mM HEPES, 0.1% BSA and 2.5 mM probenecid, pH7.4) for use in the assay at a final concentration of 70 pM. Test compounds are prepared as 10 mM stock solution in DMSO, then diluted in 384-well plates, first in DMSO, then assay buffer. On the day of the assay, cells are washed 3 times with 100 μl assay buffer and then incubated for 60 min (37° C., 5% CO2) in 60 μl assay buffer containing 1 μM Fluo-4AM ester, 0.02% pluronic acid, and 1% BSA. The dye loading solution is then aspirated and cells are washed 3 times with 100 μl assay buffer. 30 μl of that same buffer is left in each well. Within the Fluorescent Imaging Plate Reader (FLIPR, Molecular Devices), test compounds are added to the plate in a volume of 25 μl, incubated for 5 min and finally 25 μl of agonist is added. Fluorescence is measured for each well at 1 second intervals for 5 minutes and the height of each fluorescence peak is compared to the height of the fluorescence peak induced by 70 pM Ala-6,12 orexin-A with buffer in place of antagonist. For each antagonist, IC50 value (the concentration of compound needed to inhibit 50% of the agonist response) is determined. Alternatively, compound potency can be assessed by a radioligand binding assay (described in Bergman et. al. Bioorg. Med. Chem. Lett. 2008, 18, 1425-1430) in which the inhibition constant (Ki) is determined in membranes prepared from CHO cells expressing either the OX1 or OX2 receptor. The intrinsic orexin receptor antagonist activity of a compound which may be used in the present invention may be determined by these assays.

hOX1R = target: T2, hOX1R (Homo sapiens, UniProt O43613); assay: FLIPR Ca2+ Flux Assay, CHO cells expressing the orexin-1 receptor; type: cell-based; settings: agonist 70 pM Ala-6,12 orexin-A
T2 construct: expressed in transfected cells; host or cells: CHO cells
T2 sequence (O43613 1-425): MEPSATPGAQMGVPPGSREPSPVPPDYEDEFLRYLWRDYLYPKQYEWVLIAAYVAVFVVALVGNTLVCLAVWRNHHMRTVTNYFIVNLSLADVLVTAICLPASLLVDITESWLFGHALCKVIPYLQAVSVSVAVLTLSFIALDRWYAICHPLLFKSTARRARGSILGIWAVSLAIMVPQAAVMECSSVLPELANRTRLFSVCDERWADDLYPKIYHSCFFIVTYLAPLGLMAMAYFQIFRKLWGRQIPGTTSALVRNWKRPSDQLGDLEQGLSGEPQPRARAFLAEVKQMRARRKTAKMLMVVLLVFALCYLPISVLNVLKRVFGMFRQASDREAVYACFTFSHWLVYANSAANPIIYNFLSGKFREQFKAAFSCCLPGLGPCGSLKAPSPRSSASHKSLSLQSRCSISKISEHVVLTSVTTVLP

With COC(=O)c1c(OC)ccnc1N[C@@H]1CC[C@@H](C)N(C(=O)c2ccccc2-c2nc(C)no2)C1 [Example 7, methyl 4-methoxy-2-{[(3R,6R)-6-methyl-1-{[2-(3-methyl-1,2,4-oxadiazol-5-yl)phenyl]carbonyl}piperidin-3-yl]amino}pyridine-3-carboxylate] the pIC50 (human orexin-2 receptor) was 7.13 and the pIC50 (hOX1R) was 6.51.

COC(=O)c1c(OC)ccnc1N[C@@H]1CC[C@@H](C)N(C(=O)c2ccccc2-n2nccn2)C1 [Example 2, Methyl 4-methoxy-2-{[(3R,6R)-6-methyl-1-{[2-(2H-1,2,3-triazol-2-yl)phenyl]carbonyl}-piperidin-3-yl]amino}pyridine-3-carboxylate] showed a pIC50 (human orexin-2 receptor) of 7.60 and a pIC50 (hOX1R) of 7.28.

In the case of COC(=O)c1c(OC)ccnc1N[C@@H]1CC[C@@H](C)N(C(=O)c2ccccc2-c2ncccn2)C1 [Example 11, Methyl 4-methoxy-2-({(3R,6R)-6-methyl-1-[(2-pyrimidin-2-ylphenyl)carbonyl]piperidin-3-yl}amino)pyridine-3-carboxylate], the pIC50 (human orexin-2 receptor) was 7.39 and the pIC50 (hOX1R) was 7.10.

Molecule COC(=O)c1c(OC)ccnc1N[C@@H]1CC[C@@H](C)N(C(=O)c2sccc2-c2ncccn2)C1 [Example 16, methyl 4-methoxy-2-({(3R,6R)-6-methyl-1-[(3-pyrimidin-2-ylthiophen-2-yl)carbonyl]piperidin-3-yl}amino)pyridine-3-carboxylate] has a pIC50 (human orexin-2 receptor) of 7.40 and a pIC50 (hOX1R) of 6.40.

In the case of COC(=O)c1c(OC)ccnc1N[C@@H]1CC[C@@H](C)N(C(=O)c2c(F)cccc2-n2nccn2)C1 [Example 6, methyl 2-{[(3R,6R)-1-{[2-fluoro-6-(2H-1,2,3-triazol-2-yl)phenyl]carbonyl}-6-methylpiperidin-3-yl]amino}-4-methoxypyridine-3-carboxylate], the pIC50 (human orexin-2 receptor) was 7.27 and the pIC50 (hOX1R) was 6.81.

Molecule COC(=O)c1c(C#N)ccnc1N[C@@H]1CC[C@@H](C)N(C(=O)c2ccccc2-c2ncccn2)C1 [Example 20, Methyl 4-cyano-2-({(3R,6R)-6-methyl-1-[(2-pyrimidin-2-ylphenyl)carbonyl]piperidin-3-yl}amino)pyridine-3-carboxylate] has a pIC50 (human orexin-2 receptor) of 7.32 and a pIC50 (hOX1R) of 7.07.

COC(=O)c1c(OC)ccnc1N[C@@H]1CC[C@@H](C)N(C(=O)c2cccc(F)c2-c2ncccn2)C1 [Example 12, methyl 2-({(3R,6R)-1-[(3-fluoro-2-pyrimidin-2-ylphenyl)carbonyl]-6-methylpiperidin-3-yl}amino)-4-methoxypyridine-3-carboxylate] gave a pIC50 (human orexin-2 receptor) of 7.28 and a pIC50 (hOX1R) of 6.71.

COC(=O)c1c(OC)ccnc1N[C@@H]1CC[C@@H](C)N(C(=O)c2ccsc2-c2ncccn2)C1 [Example 17, methyl 4-methoxy-2-({(3R,6R)-6-methyl-1-[(2-pyrimidin-2-ylthiophen-3-yl)carbonyl]piperidin-3-yl}amino)pyridine-3-carboxylate] showed a pIC50 (human orexin-2 receptor) of 7.24 and a pIC50 (hOX1R) of 6.58.

COC(=O)c1c(OC)ccnc1N[C@@H]1CC[C@@H](C)N(C(=O)c2c(F)cccc2-c2nc(C)no2)C1 [Example 8, methyl 2-{[(3R,6R)-1-{[2-fluoro-6-(3-methyl-1,2,4-oxadiazol-5-yl)phenyl]carbonyl}-6-methylpiperidin-3-yl]amino}-4-methoxypyridine-3-carboxylate] was tested, and the pIC50 (human orexin-2 receptor) was 7.03 and the pIC50 (hOX1R) was 6.54.

COC(=O)c1c(C#N)ccnc1N[C@@H]1CC[C@@H](C)N(C(=O)c2ccccc2-n2nccn2)C1 [Example 19, Methyl 4-cyano-2-{[(3R,6R)-6-methyl-1-{[2-(2H-1,2,3-triazol-2-yl)phenyl]carbonyl}-piperidin-3-yl]amino}pyridine-3-carboxylate] showed a pIC50 (human orexin-2 receptor) of 7.62 and a pIC50 (hOX1R) of 7.37.

COC(=O)c1c(OC)ccnc1N[C@@H]1CC[C@@H](C)N(C(=O)c2ncccc2-c2ncccn2)C1 [Example 18, methyl 4-methoxy-2-({(3R,6R)-6-methyl-1-[(3-pyrimidin-2-ylpyridin-2-yl)carbonyl]piperidin-3-yl}amino)pyridine-3-carboxylate] gave a pIC50 (human orexin-2 receptor) of 6.77 and a pIC50 (hOX1R) of 6.47.

Molecule COC(=O)c1c(OC)ccnc1N[C@@H]1CC[C@@H](C)N(C(=O)c2cccc(F)c2-c2noc(C)n2)C1 [Example 9, methyl 2-{[(3R,6R)-1-{[3-fluoro-2-(5-methyl-1,2,4-oxadiazol-3-yl)phenyl]carbonyl}-6-methylpiperidin-3-yl]amino}-4-methoxypyridine-3-carboxylate] has a pIC50 (human orexin-2 receptor) of 7.24 and a pIC50 (hOX1R) of 6.63.

In the case of COC(=O)c1c(OC)ccnc1N[C@@H]1CC[C@@H](C)N(C(=O)c2cccc(F)c2-n2nccn2)C1 [Example 4, methyl 2-{[(3R,6R)-1-{[3-fluoro-2-(2H-1,2,3-triazol-2-yl)phenyl]carbonyl}-6-methylpiperidin-3-yl]amino}-4-methoxypyridine-3-carboxylate], the pIC50 (human orexin-2 receptor) was 7.35 and the pIC50 (hOX1R) was 6.44.

With COC(=O)c1cccnc1N[C@@H]1CC[C@@H](C)N(C(=O)c2ccccc2-n2nccn2)C1 [Example 1, Methyl 2-{[(3R,6R)-6-methyl-1-{[2-(2H-1,2,3-triazol-2-yl)phenyl]carbonyl}piperidin-3-yl]amino}pyridine-3-carboxylate] the pIC50 (human orexin-2 receptor) was 7.42.

In the case of COC(=O)c1c(OC)ccnc1N[C@@H]1CC[C@@H](C)N(C(=O)c2c(F)cccc2-c2ncccn2)C1 [Example 15, methyl 2-({(3R,6R)-1-[(2-fluoro-6-pyrimidin-2-ylphenyl)carbonyl]-6-methylpiperidin-3-yl}amino)-4-methoxypyridine-3-carboxylate], the pIC50 (human orexin-2 receptor) was 7.42 and the pIC50 (hOX1R) was 7.18.

COC(=O)c1c(OC)ccnc1N[C@@H]1CC[C@@H](C)N(C(=O)c2ccc(F)cc2-c2ncccn2)C1 [Example 13, methyl 2-({(3R,6R)-1-[(4-fluoro-2-pyrimidin-2-ylphenyl)carbonyl]-6-methylpiperidin-3-yl}amino)-4-methoxypyridine-3-carboxylate] gave a pIC50 (human orexin-2 receptor) of 7.36 and a pIC50 (hOX1R) of 6.86.

For COC(=O)c1c(OC)ccnc1N[C@@H]1CC[C@@H](C)N(C(=O)c2cc(F)ccc2-n2nccn2)C1 [Example 5, methyl 2-{[(3R,6R)-1-{[5-fluoro-2-(2H-1,2,3-triazol-2-yl)phenyl]carbonyl}-6-methylpiperidin-3-yl]amino}-4-methoxypyridine-3-carboxylate], the pIC50 (human orexin-2 receptor) was 7.35 and the pIC50 (hOX1R) was 6.68.

COC(=O)c1c(OC)ccnc1N[C@@H]1CC[C@@H](C)N(C(=O)c2cc(F)ccc2-c2ncccn2)C1 [Example 14, methyl 2-({(3R,6R)-1-[(5-fluoro-2-pyrimidin-2-ylphenyl)carbonyl]-6-methylpiperidin-3-yl}amino)-4-methoxypyridine-3-carboxylate] showed a pIC50 (human orexin-2 receptor) of 7.29 and a pIC50 (hOX1R) of 7.08.

COC(=O)c1c(OC)ccnc1N[C@@H]1CC[C@@H](C)N(C(=O)c2ccccc2-n2ncnn2)C1 [Example 3, Methyl 4-methoxy-2-{[(3R,6R)-6-methyl-1-{[2-(2H-tetrazol-2-yl)phenyl]carbonyl}piperidin-3-yl]amino}pyridine-3-carboxylate] showed a pIC50 (human orexin-2 receptor) of 7.47 and a pIC50 (hOX1R) of 6.63.
